From patent US6541463B1, “Inhibitors of type 5 and type 3 17β-hydroxysteroid dehydrogenase and methods for their use” (Endorecherche, Inc., priority 1998, dated 2003)

What was measured:
Assay type in all cases: biochemical
[1] = target: T1, human type 1 17β-hydroxysteroid dehydrogenase (Homo sapiens, UniProt P14061); assay: Enzymatic assay for type 1 17β-HSD; settings: for inhibition at 3 µM / Inhibition Type 1 17B-HSD Activity [% Inh. at 3 · 10^−6 M]: 3 · 10^−6 M, value in square brackets; for inhibition at 3 µM: read-out: Inhibition Type 1 17B-HSD Activity [% Inh. at 3 · 10^−6 M]; for IC50: Table 4′, read-out: Inhibition Type 1 17β-HSD Activity IC50
T1 construct: expressed in transfected cells; host or cells: 293 cells, transient transfection; 100 000×g supernatant (cytosol)
T1 sequence (P14061 1-328): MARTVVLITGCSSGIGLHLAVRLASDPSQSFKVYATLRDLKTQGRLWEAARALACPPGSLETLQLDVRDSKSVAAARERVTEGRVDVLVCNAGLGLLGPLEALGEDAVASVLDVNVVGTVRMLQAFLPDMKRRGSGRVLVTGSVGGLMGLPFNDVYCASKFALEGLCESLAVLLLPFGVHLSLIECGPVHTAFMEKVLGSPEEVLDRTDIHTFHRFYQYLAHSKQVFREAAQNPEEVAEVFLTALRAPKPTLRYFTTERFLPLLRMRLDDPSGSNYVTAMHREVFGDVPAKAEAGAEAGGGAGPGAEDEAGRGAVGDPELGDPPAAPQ
Method: (§1) The manner in which IC50 was determined is described in “Efficacy of Preferred Inhibitors: VI. Enzymatic assay for types 1, 2, and 3 17β-HSD and types 1 and 3 3α-HSD”. […] numbers of IC50 are desirable. Blank means that a determination was not done. The % of inhibition at the concentration of 3.10^−6M determined in preliminary screening test is reported in square braquets.
(§2) Enzyme sources. 293 cells transiently transfected with expression vectors encoding types 1, 2 and 3 17β-HSD (Luu-The et al., J. Steroid Biochem. Molec. Biol., 55: 581-587, 1995), types 1 and 2 5α-reductase (Luu-The et al., J. Invest. Dermatol., 102: 221-226, 1994) and types 1 and 3 3α-HSD (Dufort et al. Biochem. Biophys. Res. Commun. 228: 474-479, 1996), using the calcium phosphate procedure (Kingston et al., In: Current Protocols in Molecular Biology. Edited by E. M. Ausbel, R. Brent, R. E. Kingston, D. D. Moore, J. G. Seidman, J. A. Smith, K. Struhl. John Wiley & Sons, New York, pp. 9.1.1-9.1.9, 1991; Luu-The et al., J. Invest. Dermatol., 102: 221-226, 1994). For assays using cell subfractions, cells were sonicated in 50 mM sodium phosphate buffer (pH 7.4), containing 20% glycerol and 1 mM EDTA and centrifuged at 10 000×g for 30 min before centrifugation for 100 000×g for 1 h to separate the mitochondrial and microsomal fractions, respectively. The cytosol fractions (100 000×g supernatant) was used to determine type 1 activity while the microsomal fraction (pellet at 100 000×g) was used for measurement of types 2 and 3 17β-HSD activities.
(§3) Incubation. The enzymatic reaction was carried out at 37° C. in 1 ml of 50 mM sodium phosphate buffer, pH 7.4, containing 20% glycerol, 1 mM EDTA, and 2 mM cofactors (NADPH or AND^+) for 1 h in the presence of 0.1 μM ^14C-labeled substrate: estrone and 4-dione for types 1 and […] 17β-HSD, respectively, testosterone for type 2 17β-HSD as well as types 1 and 2 5α-reductases, DHT for types 1 and 3 3α-HSD activities, and the indicated concentration of inhibitor.
(§4) Extraction of metabolites, migration on TLC and quantification were as described above for the assay of type 5 17β-HSD.

[2] = target: T2, human type 3 17β-hydroxysteroid dehydrogenase (Homo sapiens, UniProt P37058); assay: Enzymatic assay for type 3 17β-HSD; settings: for IC50: Table 4′, read-out: Inhibition Type 3 17β-HSD Activity IC50
T2 construct: expressed in transfected cells; host or cells: 293 cells, transient transfection; microsomal fraction (100 000×g pellet)
T2 sequence (P37058 1-310): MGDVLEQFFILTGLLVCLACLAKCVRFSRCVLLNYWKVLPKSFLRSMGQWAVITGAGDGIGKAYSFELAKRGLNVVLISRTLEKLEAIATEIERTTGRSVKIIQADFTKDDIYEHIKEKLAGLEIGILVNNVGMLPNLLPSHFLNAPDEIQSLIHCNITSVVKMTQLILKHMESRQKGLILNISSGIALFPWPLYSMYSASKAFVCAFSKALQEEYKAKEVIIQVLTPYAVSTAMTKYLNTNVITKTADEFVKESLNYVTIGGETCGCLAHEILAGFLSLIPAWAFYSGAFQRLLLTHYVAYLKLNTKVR
Description: Enzymatic assay for types 1, 2, and 3 17β-HSD and types 1 and 3 3α-HSD”. Lower numbers of IC50 are desirable. Blank means that a determination was not done. The % of inhibition at the concentration of 3.10^−6M determined in preliminary screening test is reported in square braquets.
as §2, §3, §4

[3] = target: T3, human type 3 3α-hydroxysteroid dehydrogenase (Homo sapiens, UniProt P52895); assay: Enzymatic assay for type 3 3α-HSD; settings: Table 4′; read-out: Inhibition Type 3 3α-HSD Activity IC50
T3 construct: expressed in transfected cells; host or cells: 293 cells, transient transfection
T3 sequence (P52895 1-323): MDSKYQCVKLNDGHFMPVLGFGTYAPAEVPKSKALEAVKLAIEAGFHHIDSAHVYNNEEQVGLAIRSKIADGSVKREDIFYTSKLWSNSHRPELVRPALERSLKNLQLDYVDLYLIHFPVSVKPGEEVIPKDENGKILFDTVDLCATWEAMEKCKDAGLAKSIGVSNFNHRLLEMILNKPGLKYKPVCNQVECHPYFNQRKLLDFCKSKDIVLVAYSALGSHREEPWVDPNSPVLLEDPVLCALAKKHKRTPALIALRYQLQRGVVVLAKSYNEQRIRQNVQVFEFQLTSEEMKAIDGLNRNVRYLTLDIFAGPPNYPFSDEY
Method: as §1, §2, §3, §4

[4] = target: T4, human type 1 3α-hydroxysteroid dehydrogenase (Homo sapiens, UniProt P17516); assay: Enzymatic assay for type 1 3α-HSD; settings: Table 4′; for IC50: read-out: Inhibition Type 1 3α-HSD Activity IC50
T4 sequence (P17516 1-323): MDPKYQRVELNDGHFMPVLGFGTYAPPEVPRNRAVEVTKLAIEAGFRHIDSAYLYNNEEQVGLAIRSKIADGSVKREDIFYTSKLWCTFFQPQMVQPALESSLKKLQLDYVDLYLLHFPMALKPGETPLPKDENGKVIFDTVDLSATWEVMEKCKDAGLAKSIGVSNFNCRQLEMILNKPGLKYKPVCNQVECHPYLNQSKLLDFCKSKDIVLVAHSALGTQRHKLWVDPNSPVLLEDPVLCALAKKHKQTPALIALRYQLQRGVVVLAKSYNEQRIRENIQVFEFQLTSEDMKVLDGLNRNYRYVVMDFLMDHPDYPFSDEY
Method: The manner in which IC50 was determined is described in “Efficacy of Preferred Inhibitors: VI. Enzymatic assay for types 1, 2, and 3 17β-HSD and types 1 and 3 3α-HSD”. […] numbers of IC50 are desirable. Blank means that a determination was not done. […]
as §2, §3, §4

Structure (SMILES) | inhibition at 3 µM [1] [%] | IC50 [2] [µM] | IC50 [3] [µM] | IC50 [4] [µM] | IC50 [1] [µM] | further results
CC12C=CC(=O)C=C1C=CC1C2CCC2(C)C(=O)C3(CCCCC3)CC12 (stereo not shown) [CS-204] | 23 |  |  |  |  | 
CC1=C[C@@H]2[C@H](CC[C@]3(C)C(=O)C4(CCCCC4)C[C@@H]23)[C@@]2(C)CCC(=O)C=C12 [EM-925] |  |  |  |  |  | Inhibition Type 1 17B-HSD Activity [% Inh. at 3 · 10^−6 M] [1]: [13] %
CCCC(=O)O[C@]1(C)C(=O)CCC2C3C=C(C)C4=CC(=O)CC[C@]4(C)C3CC[C@@]21C (stereo partly shown) [EM-1078] | 15 |  |  |  |  | 
CCC[C@@H]1CC2C3C=CC4=CC(=O)CC[C@]4(C)C3CC[C@]2(C)C1=O (stereo partly shown) [EM-1097] | 64 |  |  |  |  | inhibition at 3 µM ([2]; 3 · 10^−6 M, value in square brackets, read-out: Inhibition Type 3 17B-HSD Activity [% Inh. at 3 · 10^−6 M]): 82%
CC1(C)CC[C@@]2(CCC3C4CCc5cc(F)ccc5C4CC[C@@]32C)OC1=O (stereo partly shown) [EM-1157-CS] |  | > 10 | > 10 | > 10 | > 10 | 
CCC[C@]1(F)CC2C3C=CC4=CC(=O)CC[C@]4(C)C3CC[C@]2(C)C1=O (stereo partly shown) [EM-1183] | 34 |  |  |  |  | 
CC(C)C[C@@H]1CC2C3C=CC4=CC(=O)CC[C@]4(C)C3CC[C@]2(C)C1=O (stereo partly shown) [EM-1273-CS] | 31 |  |  |  |  | 
C[C@]12CCC(=O)C=C1C=C[C@@H]1[C@@H]2CC[C@]2(C)C(=O)C3(CC4CC4C3)C[C@@H]12 (stereo partly shown) [EM-1299, 4,6-Androstadien-3,17-dione-16-spirobicyclo[3′.1′.0′]-hexane] |  |  |  |  |  | Inhibition Type 1 17B-HSD Activity [% Inh. at 3 · 10^−6 M] [1]: [49] %
CC1(C)CCC2(CCC3C4CCc5cc(OS(C)(=O)=O)ccc5C4CCC32C)OC1=O (stereo not shown) [EM-1365-CS] |  | > 10 | > 10 | > 10 | > 10 | 
COc1ccc2c(c1)C(=O)CC1C2CC[C@@]2(C)C1CC[C@@]21CCC(C)(C)C(=O)O1 (stereo partly shown) [EM-1394] |  | > 10 | > 10 | > 10 | > 10 | 
COCCOc1cc2c(cc1C#N)C1CC[C@@]3(C)C(CC[C@@]34CCC(C)(C)C(=O)O4)C1CC2 (stereo partly shown) [EM-1396] |  | > 10 | > 10 | > 10 | > 10 | 
CC1(C)CC[C@@]2(CCC3C4CCc5cc(C(=O)O)ccc5C4CC[C@@]32C)OC1=O (stereo partly drawn) [EM-1401, 3-Carboxy-1,3,5(10)-estratrien-17(R)-spiro-2′-(5′,5′-dimethyl-6′-oxo)tetrahydropyran] |  | > 10 | > 10 |  | > 10 | Inhibition Type 1 3α-HSD Activity [% Inh. at 3 · 10^8M] ([4]; bracketed value, 3 · 10^−6 M): [76] %
COCCOc1cc2c(cc1C(=O)OC)C1CC[C@@]3(C)C(CC[C@@]34CCC(C)(C)C(=O)O4)C1CC2 (stereo partly drawn) [EM-1402-CS, 2-Carbomethoxy-3-(2″-methoxyethyloxy)-1,3,5(10)-estratrien 17(R)-spiro-2′-(5′,5′-dimethyl-6′-oxo)tetrahydropyran] |  | > 10 | > 10 | > 10 | > 10 | 
CC1(C)CC[C@@]2(CCC3C4CCc5cc(C(N)=O)ccc5C4CCC32C)OC1=O (stereo partly shown) [EM-1404] |  | > 10 | > 10 | > 10 | > 10 | 
COCCOc1cc2c(cc1C(N)=O)C1CC[C@@]3(C)C(CC[C@@]34CCC(C)(C)C(=O)O4)C1CC2 (stereo partly drawn) [EM-1424, 2-Carbamoyl-3-(2″-methoxyethyloxy)-1,3,5(10)-estratrien 17(R)-spiro-2′-(5′,5′-dimethyl-6′-oxo)tetrahydropyran] |  | > 10 | > 10 | > 10 | > 10 | 
